Measurements taken from patent EP3991732A1, “USE OF CLOFAZIMINE IN HEPATOCELLULAR CARCINOMA” (UNIVERSITE DE GENEVE, priority 2020, dated 2022).

Experiments:
SNU398 = assay: MTT survival assay, SNU398; type: cell-based, human
Procedure: (§1) The four hepatocellular carcinoma (HCC) cell lines were tested in MTT survival assay with clofazimine as described below: 50 µl of the indicated cell lines re-suspended at 60'000 cells/ml for HepG2, Hep3B, at 35'000/ml for Huh7 and at 40'000/ml for SNU398 were added into each well of a transparent 384-well plate. The cells were maintained in DMEM containing 10% FBS for Hep3B; RPMI with 10% FBS for SNU398; DMEM without glucose containing 10% FBS and 1g/L glucose for Huh7 and MEM without glucose containing 10% FBS for HepG2 and incubated at 37°C, 5% CO2 overnight. The medium of each well was replaced by 100 µl fresh medium the next day containing the indicated concentrations of clofazimine. After incubation for 4-7 days (depending on the growth rate of line), the medium in each well was replaced by 50 µl of 0.5 mg/ml Thiazolyl blue (Carl Roth) solution in 1xPBS. The plates were incubated for 3h at 37°C. Then the solution was removed and 50 µl DMSO was added into each well. Absorbance at 570 nm was measured in a Tecan Infinite M200 PRO plate reader.

Hep3B = assay: MTT survival assay, Hep3B; type: cell-based, human
Procedure: as §1

Huh7 = assay: MTT survival assay, Huh7; type: cell-based; conditions: Homo sapiens, Huh-7, Huh7 cells, incubation 4-7 days
Procedure: as §1

HepG2 = assay: MTT survival assay, HepG2; type: cell-based; conditions: Homo sapiens, HepG2 cells, incubation 4-7 days
Procedure: as §1

Wnt signalling (SNU398) = assay: TopFlash dual luciferase assay, SNU398; type: cell-based, human
Procedure: (§2) Briefly, 50 µl of indicated cell lines at 84'000/ml for Huh7, or 96'000/ml for SNU398, or 144'000/ml for HepG2, Hep3B were distributed in a white opaque 384-well plate. The cells were maintained in their respective culture mediums and incubated at 37°C, 5% CO2 overnight for attachment. Afterwards, the cells are double-transfected (1:1 mixture) with the Wnt-specific TopFlash reporter plasmid (Syngene) and a Wnt-independent CMV-Renilla plasmid monitoring the general level of cell transcription (Addgene, Cambridge, MA, USA). The relative nature of this representation (ratio of the TopFlash to the CMV-Renilla levels) permits to compare Wnt pathway levels across cell types, being independent from individual cell transfection efficiency.
(§3) Transfection was carried out as described in the manufacturer's protocol using 12 µg/ml of DNA and 40 µl/ml XtremeGENE 9 reagent (Roche). The next day, the medium of each well was replaced 30 µl fresh medium containing Wnt3a (500 ng/ml) (purified as described by (Koval and Katanaev, 2011, Biochemical Journal 433, 435) or GSK3β inhibitor (CHIR99021, Sigma-Aldrich) and clofazimine at 5, 10, and 15 µM concentrations (following 1h of preincubation with the compound). After overnight incubation, the supernatant in each well was removed and the luciferase activity was measured as described (Koval and Katanaev, 2011, supra). […]

Wnt signalling (Hep3B) = assay: TopFlash dual luciferase assay, Hep3B; type: cell-based, human
Procedure: as §2, §3

Wnt signalling (Huh7) = assay: TopFlash dual luciferase assay, Huh7; type: cell-based, human
Procedure: as §2, §3

Wnt signalling (HepG2) = assay: TopFlash dual luciferase assay, HepG2; type: cell-based, human
Procedure: as §2, §3

[1] = clofazimine 5, 10, 15 µM, Wnt3a 500 ng/ml
[2] = versus relatively low basal level

| SMILES | IC50 (SNU398; Homo sapiens, SNU-398, SNU398 cells, MTT, incubation 4-7 days) [µM] | stronger sensitivity to growth inhibition than HepG2 and Huh7 (SNU398; SNU398 versus HepG2 and Huh7, MTT assay) [fold] | stronger sensitivity to growth inhibition than HepG2 and Huh7 (Hep3B; Hep3B versus HepG2 and Huh7, MTT assay) [fold] | IC50 (Hep3B; Homo sapiens, Hep3B cells, MTT, incubation 4-7 days) [µM] | IC50 (Huh7) [µM] | IC50 (HepG2) [µM] | inhibiting effect on Wnt signaling (Wnt3a-induced response in the TopFlash assay) (Wnt signalling (SNU398); [1]) | inhibiting effect on Wnt signaling (Wnt3a-induced response in the TopFlash assay) (Wnt signalling (Hep3B); [1]) | inhibiting effect on Wnt signaling (Wnt3a-induced response in the TopFlash assay) (Wnt signalling (Huh7); [1]) | inhibiting effect on Wnt signaling (Wnt3a-induced response in the TopFlash assay) (Wnt signalling (HepG2); [1]) | stimulation of Wnt signalling levels by activator (TopFlash) (Wnt signalling (SNU398); versus very high basal level) | stimulation of Wnt signalling levels by activator (TopFlash) (Wnt signalling (Hep3B); [2]) | stimulation of Wnt signalling levels by activator (TopFlash) (Wnt signalling (Huh7); [2]) | stimulation of Wnt signalling levels by activator (TopFlash) (Wnt signalling (HepG2); versus very high basal level) |
| --- | --- | --- | --- | --- | --- | --- | --- | --- | --- | --- | --- | --- | --- | --- |
| CC(C)N=c1cc2n(-c3ccc(Cl)cc3)c3ccccc3nc-2cc1Nc1ccc(Cl)cc1 [clofazimine, N,5-bis(4-chlorophenyl)-3-(propan-2-ylimino)-3,5-dihydrophenazin-2-amine] | 1 to 2 | > 10 | > 10 | 1 to 2 | 13 | 17 | inhibited | inhibited | non-responsive | non-responsive | – | – | – | – |
| Cc1c[nH]c(-c2cnc(NCCNc3ccc(C#N)cn3)nc2-c2ccc(Cl)cc2Cl)n1 [CHIR99021] | – | – | – | – | – | – | – | – | – | – | not at all or to at best limited extent further increased | strongly stimulated | strongly stimulated | not at all or to at best limited extent further increased |
